{"source": "patent US11149030B2", "about": "“Plants having increased tolerance to herbicides” (BASF AGRO B.V., priority 2016, dated 2021)", "test_system": "transgenic T2 Arabidopsis plants", "test": "Greenhouse spray of transgenic T2 Arabidopsis plants, herbicide injury 0 to 100% phytotox rating (Table A)", "assay_type": "in vivo", "settings": "14 days after treatment", "experimental": "Additionally, transgenic T2 Arabidopsis plants are tested for improved tolerance to herbicides in greenhouse studies with the following herbicides: methyl 2-[2-chloro-5-[3-chloro-5-(trifluoromethyl)-2-pyridyl]-4-fluoro-phenoxy]-2-methoxy-acetate, and photosynthesis inhibitor diuron as negative control.\nTable A: Transgenic T2 Arabidopsis plants, four weeks old, were sprayed in the greenhouse with the indicated amount of compound+1% (v/v) MSO. Herbicide injury was evaluated 14 days after treatment with a 0 to 100% phytotox rating scale where 0 is no injury relative to an unsprayed wild type check and 100% is completely dead.", "note": "Values joined by “and” are separate entries in the source; they are usually repeats but may differ in a detail not shown here. Equal entries are not always repeated."}
{"smiles": "COC(=O)C(OC)Oc1cc(-c2ncc(C(F)(F)F)cc2Cl)c(F)cc1Cl", "note": "(centres unmarked) [methyl 2-[2-chloro-5-[3-chloro-5-(trifluoromethyl)-2-pyridyl]-4-fluoro-phenoxy]-2-methoxy-acetate]", "values": [{"measurement": "Herbicide injury, 0 to 100% phytotox rating", "setting": "construct ALOMY_PPO2 F438I, 50 g ai/ha + 1% (v/v) MSO", "result": 48, "unit": "%"}, {"measurement": "Herbicide injury, 0 to 100% phytotox rating", "setting": "construct ALOMY_PPO2 F438I, 100 g ai/ha + 1% (v/v) MSO", "result": 64, "unit": "%"}, {"measurement": "Herbicide injury, 0 to 100% phytotox rating", "setting": "construct ALOMY_PPO2 F438I, 200 g ai/ha + 1% (v/v) MSO", "result": 79, "unit": "%"}, {"measurement": "Herbicide injury, 0 to 100% phytotox rating", "setting": "construct ALOMY_PPO2 F438M, 50 g ai/ha + 1% (v/v) MSO", "result": 30, "unit": "%"}, {"measurement": "Herbicide injury, 0 to 100% phytotox rating", "setting": "construct ALOMY_PPO2 F438M, 100 g ai/ha + 1% (v/v) MSO", "result": 43, "unit": "%"}, {"measurement": "Herbicide injury, 0 to 100% phytotox rating", "setting": "construct ALOMY_PPO2 F438M, 200 g ai/ha + 1% (v/v) MSO", "result": 69, "unit": "%"}, {"measurement": "Herbicide injury, 0 to 100% phytotox rating", "setting": "construct ALOMY_PPO2 F438V, 50 g ai/ha + 1% (v/v) MSO", "result": 36, "unit": "%"}, {"measurement": "Herbicide injury, 0 to 100% phytotox rating", "setting": "construct ALOMY_PPO2 F438V, 100 g ai/ha + 1% (v/v) MSO", "result": 55, "unit": "%"}, {"measurement": "Herbicide injury, 0 to 100% phytotox rating", "setting": "construct ALOMY_PPO2 F438V, 200 g ai/ha + 1% (v/v) MSO", "result": 69, "unit": "%"}, {"measurement": "Herbicide injury, 0 to 100% phytotox rating", "setting": "construct ALOMY_PPO2 L415A_F438M, 50 g ai/ha + 1% (v/v) MSO", "result": 23, "unit": "%"}, {"measurement": "Herbicide injury, 0 to 100% phytotox rating", "setting": "construct ALOMY_PPO2 L415A_F438M, 100 g ai/ha + 1% (v/v) MSO", "result": 28, "unit": "%"}, {"measurement": "Herbicide injury, 0 to 100% phytotox rating", "setting": "construct ALOMY_PPO2 L415A_F438M, 200 g ai/ha + 1% (v/v) MSO", "result": 39, "unit": "%"}, {"measurement": "Herbicide injury, 0 to 100% phytotox rating", "setting": "construct ALOMY_PPO2 L415E_F438M, 50 g ai/ha + 1% (v/v) MSO", "result": 15, "unit": "%"}, {"measurement": "Herbicide injury, 0 to 100% phytotox rating", "setting": "construct ALOMY_PPO2 L415E_F438M, 100 g ai/ha + 1% (v/v) MSO", "result": 29, "unit": "%"}, {"measurement": "Herbicide injury, 0 to 100% phytotox rating", "setting": "construct ALOMY_PPO2 L415E_F438M, 200 g ai/ha + 1% (v/v) MSO", "result": 43, "unit": "%"}, {"measurement": "Herbicide injury, 0 to 100% phytotox rating", "setting": "construct ALOMY_PPO2 L415G_F438M (two table lines), 50 g ai/ha + 1% (v/v) MSO", "result": "36% and 26%"}, {"measurement": "Herbicide injury, 0 to 100% phytotox rating", "setting": "construct ALOMY_PPO2 L415G_F438M (two table lines), 100 g ai/ha + 1% (v/v) MSO", "result": "46% and 34%"}, {"measurement": "Herbicide injury, 0 to 100% phytotox rating", "setting": "construct ALOMY_PPO2 L415G_F438M (two table lines), 200 g ai/ha + 1% (v/v) MSO", "result": "59% and 46%"}, {"measurement": "Herbicide injury, 0 to 100% phytotox rating", "setting": "construct ALOMY_PPO2 L415Q_F438M, 50 g ai/ha + 1% (v/v) MSO", "result": 18, "unit": "%"}, {"measurement": "Herbicide injury, 0 to 100% phytotox rating", "setting": "construct ALOMY_PPO2 L415Q_F438M, 100 g ai/ha + 1% (v/v) MSO", "result": 23, "unit": "%"}, {"measurement": "Herbicide injury, 0 to 100% phytotox rating", "setting": "construct ALOMY_PPO2 L415Q_F438M, 200 g ai/ha + 1% (v/v) MSO", "result": 41, "unit": "%"}, {"measurement": "Herbicide injury, 0 to 100% phytotox rating", "setting": "construct ALOMY_PPO2 R137L_F438L, 50 g ai/ha + 1% (v/v) MSO", "result": 55, "unit": "%"}, {"measurement": "Herbicide injury, 0 to 100% phytotox rating", "setting": "construct ALOMY_PPO2 R137L_F438L, 100 g ai/ha + 1% (v/v) MSO", "result": 59, "unit": "%"}, {"measurement": "Herbicide injury, 0 to 100% phytotox rating", "setting": "construct ALOMY_PPO2 R137L_F438L, 200 g ai/ha + 1% (v/v) MSO", "result": 71, "unit": "%"}, {"measurement": "Herbicide injury, 0 to 100% phytotox rating", "setting": "construct ALOMY_PPO2 R137L_F438M, 50 g ai/ha + 1% (v/v) MSO", "result": 50, "unit": "%"}, {"measurement": "Herbicide injury, 0 to 100% phytotox rating", "setting": "construct ALOMY_PPO2 R137L_F438M, 100 g ai/ha + 1% (v/v) MSO", "result": 68, "unit": "%"}, {"measurement": "Herbicide injury, 0 to 100% phytotox rating", "setting": "construct ALOMY_PPO2 R137L_F438M, 200 g ai/ha + 1% (v/v) MSO", "result": 70, "unit": "%"}, {"measurement": "Herbicide injury, 0 to 100% phytotox rating", "setting": "construct ALOMY_PPO2 R137L_F438V, 50 g ai/ha + 1% (v/v) MSO", "result": 39, "unit": "%"}, {"measurement": "Herbicide injury, 0 to 100% phytotox rating", "setting": "construct ALOMY_PPO2 R137L_F438V, 100 g ai/ha + 1% (v/v) MSO", "result": 58, "unit": "%"}, {"measurement": "Herbicide injury, 0 to 100% phytotox rating", "setting": "construct ALOMY_PPO2 R137L_F438V, 200 g ai/ha + 1% (v/v) MSO", "result": 65, "unit": "%"}, {"measurement": "Herbicide injury, 0 to 100% phytotox rating", "setting": "construct AMATU_PPO2 L397C_F420M, 50 g ai/ha + 1% (v/v) MSO", "result": 58, "unit": "%"}, {"measurement": "Herbicide injury, 0 to 100% phytotox rating", "setting": "construct AMATU_PPO2 L397C_F420M, 100 g ai/ha + 1% (v/v) MSO", "result": 63, "unit": "%"}, {"measurement": "Herbicide injury, 0 to 100% phytotox rating", "setting": "construct AMATU_PPO2 L397C_F420M, 200 g ai/ha + 1% (v/v) MSO", "result": 71, "unit": "%"}, {"measurement": "Herbicide injury, 0 to 100% phytotox rating", "setting": "construct AMATU_PPO2 L397D_F420V, 50 g ai/ha + 1% (v/v) MSO", "result": 49, "unit": "%"}, {"measurement": "Herbicide injury, 0 to 100% phytotox rating", "setting": "construct AMATU_PPO2 L397D_F420V, 100 g ai/ha + 1% (v/v) MSO", "result": 59, "unit": "%"}, {"measurement": "Herbicide injury, 0 to 100% phytotox rating", "setting": "construct AMATU_PPO2 L397D_F420V, 150 g ai/ha + 1% (v/v) MSO", "result": 67, "unit": "%"}, {"measurement": "Herbicide injury, 0 to 100% phytotox rating", "setting": "construct AMATU_PPO2 L397E_F420M, 50 g ai/ha + 1% (v/v) MSO", "result": 59, "unit": "%"}, {"measurement": "Herbicide injury, 0 to 100% phytotox rating", "setting": "construct AMATU_PPO2 L397E_F420M, 100 g ai/ha + 1% (v/v) MSO", "result": 68, "unit": "%"}, {"measurement": "Herbicide injury, 0 to 100% phytotox rating", "setting": "construct AMATU_PPO2 L397E_F420M, 200 g ai/ha + 1% (v/v) MSO", "result": 79, "unit": "%"}, {"measurement": "Herbicide injury, 0 to 100% phytotox rating", "setting": "construct AMATU_PPO2 L397E_F420V, 50 g ai/ha + 1% (v/v) MSO", "result": 60, "unit": "%"}, {"measurement": "Herbicide injury, 0 to 100% phytotox rating", "setting": "construct AMATU_PPO2 L397E_F420V, 100 g ai/ha + 1% (v/v) MSO", "result": 76, "unit": "%"}, {"measurement": "Herbicide injury, 0 to 100% phytotox rating", "setting": "construct AMATU_PPO2 L397E_F420V, 200 g ai/ha + 1% (v/v) MSO", "result": 85, "unit": "%"}, {"measurement": "Herbicide injury, 0 to 100% phytotox rating", "setting": "construct AMATU_PPO2 L397G_F420M, 50 g ai/ha + 1% (v/v) MSO", "result": 40, "unit": "%"}, {"measurement": "Herbicide injury, 0 to 100% phytotox rating", "setting": "construct AMATU_PPO2 L397G_F420M, 100 g ai/ha + 1% (v/v) MSO", "result": 56, "unit": "%"}, {"measurement": "Herbicide injury, 0 to 100% phytotox rating", "setting": "construct AMATU_PPO2 L397G_F420M, 200 g ai/ha + 1% (v/v) MSO", "result": 66, "unit": "%"}, {"measurement": "Herbicide injury, 0 to 100% phytotox rating", "setting": "construct AMATU_PPO2 L397Q_F420M, 50 g ai/ha + 1% (v/v) MSO", "result": 45, "unit": "%"}, {"measurement": "Herbicide injury, 0 to 100% phytotox rating", "setting": "construct AMATU_PPO2 L397Q_F420M, 100 g ai/ha + 1% (v/v) MSO", "result": 61, "unit": "%"}, {"measurement": "Herbicide injury, 0 to 100% phytotox rating", "setting": "construct AMATU_PPO2 L397Q_F420M, 200 g ai/ha + 1% (v/v) MSO", "result": 73, "unit": "%"}, {"measurement": "Herbicide injury, 0 to 100% phytotox rating", "setting": "construct AMATU_PPO2 L397Q_F420V, 50 g ai/ha + 1% (v/v) MSO", "result": 69, "unit": "%"}, {"measurement": "Herbicide injury, 0 to 100% phytotox rating", "setting": "construct AMATU_PPO2 L397Q_F420V, 100 g ai/ha + 1% (v/v) MSO", "result": 66, "unit": "%"}, {"measurement": "Herbicide injury, 0 to 100% phytotox rating", "setting": "construct AMATU_PPO2 L397Q_F420V, 200 g ai/ha + 1% (v/v) MSO", "result": 83, "unit": "%"}, {"measurement": "Herbicide injury, 0 to 100% phytotox rating", "setting": "construct AMATU_PPO2 R128A_F420V, 50 g ai/ha + 1% (v/v) MSO", "result": 51, "unit": "%"}, {"measurement": "Herbicide injury, 0 to 100% phytotox rating", "setting": "construct AMATU_PPO2 R128A_F420V, 100 g ai/ha + 1% (v/v) MSO", "result": 69, "unit": "%"}]}
